# Molecular target: T1, Human HPK1, catalytic domain (Homo sapiens, UniProt Q92918)
# T1 sequence (Q92918 1-346): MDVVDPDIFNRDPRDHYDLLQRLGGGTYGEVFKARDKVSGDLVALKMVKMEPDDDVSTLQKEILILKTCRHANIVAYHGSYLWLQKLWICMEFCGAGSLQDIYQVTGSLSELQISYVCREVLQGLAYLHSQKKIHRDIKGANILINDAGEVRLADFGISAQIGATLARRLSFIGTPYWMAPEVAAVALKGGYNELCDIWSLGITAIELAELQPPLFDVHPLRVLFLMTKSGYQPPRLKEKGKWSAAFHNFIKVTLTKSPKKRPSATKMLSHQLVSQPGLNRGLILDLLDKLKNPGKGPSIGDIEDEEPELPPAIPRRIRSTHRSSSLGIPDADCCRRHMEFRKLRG
# Assay: HPK1-SLP76 TR-FRET Assay
# Assay type: biochemical
# Conditions: 75 pM HPK1, ATP 10 uM, SLP76 10 nM, 30 min pre-incubation, 60 min reaction
row,SMILES,IC50 [nM]
1,"COc1cc2c(cc1Nc1ncc3ccc(-c4cccc(-c5cn[nH]c5)c4)cc3n1)CNCC2 [Compound 1-56, N-(6-methoxy-1,2,3,4-tetrahydroisoquinolin-7-yl)-7-[3-(1H-pyrazol-4-yl)phenyl]quinazolin-2-amine]",204
2,"COc1cc2c(cc1Nc1ncc3ccc(-c4ccc(CN(C)C)cc4)cc3n1)CNCC2 [Compound 1-57, 7-{4-[(dimethylamino)methyl]phe-nyl}-N-(6-methoxy-1,2,3,4-tetrahydroisoquinolin-7-yl)quinazolin-2-amine]",79.2
3,"COc1cc2c(cc1Nc1ncc3ccc(-c4cccc(N)c4)cc3n1)CNCC2 [Compound 1-58, 7-(3-aminophenyl)-N-(6-methoxy-1,2,3,4-tetrahydroisoquinolin-7-yl)quinazolin-2-amine]",76.2
4,"COc1cc2c(cc1Nc1ncc3ccc(-c4cccc(O)c4)cc3n1)CNCC2 [Compound 1-59, 3-{2-[(6-methoxy-1,2,3,4-tetrahydroisoquinolin-7-yl)amino]quinazolin-7-yl}phenol]",36.2
5,"COc1cc2c(cc1Nc1ncc3ccc(-c4cccc(CO)c4)cc3n1)CNCC2 [Compound 1-60, (3-{2-[(6-methoxy-1,2,3,4-tetrahydroisoquinolin-7-yl)amino]quinazolin-7-yl}phenyl)methanol]",20.5
6,"COc1cc2c(cc1Nc1ncc3ccc(-c4cccc(CN)c4)cc3n1)CNCC2 [Compound 1-61, 7-[3-(aminomethyl)phenyl]-N-(6-methoxy-1,2,3,4-tetrahydroisoquinolin-7-yl)quinazolin-2-amine]",13.9
7,"COc1cc2c(cc1Nc1ncc3ccc(-c4cc(N)cc(C#N)c4)cc3n1)CNCC2 [Compound 1-62, 3-amino-5-{2-[(6-methoxy-1,2,3,4-tetrahydroisoquinolin-7-yl)amino]quinazolin-7-yl}benzonitrile]",114
8,"COc1cc2c(cc1Nc1ncc3ccc(-c4cc(C#N)ccc4OC)cc3n1)CNCC2 [Compound 1-63, 4-methoxy-3-{2-[(6-methoxy-1,2,3,4-tetrahydroisoquinolin-7-yl)amino]quinazolin-7-yl}benzonitrile]",45.7
9,"COc1cc2c(cc1Nc1ncc3ccc(-c4ccc(CC#N)cc4)cc3n1)CNCC2 [Compound 1-64, (4-{2-[(6-methoxy-1,2,3,4-tetrahydroisoquinolin-7-yl)amino]quinazolin-7-yl}phenyl)acetonitrile]",82
10,"COc1cc2c(cc1Nc1ncc3ccc(-c4cccc(C#N)c4)cc3n1)CNCC2 [Compound 1-65, 3-{2-[(6-methoxy-1,2,3,4-tetrahydroisoquinolin-7-yl)amino]quinazolin-7-yl}benzonitrile]",120
11,"COc1cc2c(cc1Nc1ncc3ccc(-c4cccc(C(C)=O)c4)cc3n1)CNCC2 [Compound 1-66, 1-(3-{2-[(6-methoxy-1,2,3,4-tetrahydroisoquinolin-7-yl)amino]quinazolin-7-yl}phenyl)ethan-1-one]",130
12,"COc1cc2c(cc1Nc1ncc3ccc(-c4cccc(C(=O)NC5CC5)c4)cc3n1)CNCC2 [Compound 1-67, N-cyclopropyl-3-{2-[(6-methoxy-1,2,3,4-tetrahydroisoquinolin-7-yl)amino]quinazolin-7-yl}benzamide]",33.9
13,"COc1cc2c(cc1Nc1ncc3ccc(-c4ccc5c(c4)C(=O)N(CC4CC4)C5)cc3n1)CNCC2 [Compound 1-68, 2-(cyclopropylmethyl)-6-{2-[(6-methoxy-1,2,3,4-tetrahydroisoquinolin-7-yl)amino]quinazolin-7-yl}-2,3-dihydro-1H-isoindol-1-one]",161
14,"COc1cc2c(cc1Nc1ncc3ccc(-c4cccc(CN5CCCCC5)c4)cc3n1)CNCC2 [Compound 1-69, N-(6-methoxy-1,2,3,4-tetrahydroisoquinolin-7-yl)-7-{3-[(piperidin-1-yl)methyl]phenyl}quinazolin-2-amine]",215
15,"COc1cc2c(cc1Nc1ncc3ccc(-c4ccc5c(c4)OCCO5)cc3n1)CNCC2 [Compound 1-70, 7-(2,3-dihydro-1,4-benzodioxan-6-yl)-N-(6-methoxy-1,2,3,4-tetrahydroisoquinolin-7-yl)quinazolin-2-amine]",140
16,"COc1cc2c(cc1Nc1ncc3ccc(-c4ccc5c(c4)OCO5)cc3n1)CNCC2 [Compound 1-71, 7-(2H-1,3-benzodioxol-5-yl)-N-(6-methoxy-1,2,3,4-tetrahydroisoquinolin-7-yl)quinazolin-2-amine]",138
17,"COc1cc2c(cc1Nc1ncc3ccc(-c4ccc5c(c4)CCO5)cc3n1)CNCC2 [Compound 1-72, 7-(2,3-dihydro-1-benzofuran-5-yl)-N-(6-methoxy-1,2,3,4-tetrahydroisoquinolin-7-yl)quinazolin-2-amine]",53.4

row,SMILES,IC50 [nM]
1,COc1cc2c(cc1Nc1ncc3ccc(-c4cccc5nc(N)[nH]c45)cc3n1)CNCC2 [Compound 1-73],88.5
2,"COc1cc2c(cc1Nc1ncc3ccc(-c4cc(C5(CO)CC5)ccc4OC)cc3n1)CNCC2 [Compound 1-74, [1-(4-methoxy-3-{2-[(6-methoxy-1,2,3,4-tetrahydroisoquinolin-7-yl)amino]quinazolin-7-yl}phenyl)cyclo-propyl]methanol]",143
3,"COc1cc2c(cc1Nc1ncc3ccc(-c4ccc5c(c4)CCCO5)cc3n1)CNCC2 [Compound 1-75, 7-(3,4-dihydro-2H-1-benzopyran-6-yl)-N-(6-methoxy-1,2,3,4-tetrahydroisoquinolin-7-yl)quinazolin-2-amine]",91.6
4,"COc1cc2c(cc1Nc1ncc3ccc(-c4ccc5c(c4)COCC5)cc3n1)CNCC2 [Compound 1-76, 7-(3,4-dihydro-1H-2-benzopyran-7-yl)-N-(6-methoxy-1,2,3,4-tetrahydroisoquinolin-7-yl)quinazolin-2-amine]",218
5,"COc1cc2c(cc1Nc1ncc3ccc(-c4cccc(S(=O)(=O)N5CCOCC5)c4)cc3n1)CNCC2 [Compound 1-77, N-(6-methoxy-1,2,3,4-tetrahydroisoquinolin-7-yl)-7-{3-[(morpholin-4-yl)sulfonyl]phenyl}quinazo-lin-2-amine]",24.7
6,"COc1cc2c(cc1Nc1ncc3ccc(-c4cc(S(=O)(=O)N5CCCC5)ccc4C)cc3n1)CNCC2 [Compound 1-78, N-(6-methoxy-1,2,3,4-tetrahydroisoquinolin-7-yl)-7-{2-methyl-5-[(pyrrolidin-1-yl)sulfonyl]phenyl}quinazo-lin-2-amine]",353
7,"COc1cc2c(cc1Nc1ncc3ccc(-c4cc(S(=O)(=O)N(C)C)ccc4C)cc3n1)CNCC2 [Compound 1-79, 3-{2-[(6-methoxy-1,2,3,4-tetrahydroisoquinolin-7-yl)amino]quinazolin-7-yl}-N,N,4-trimethylbenzene-1-sulfonamide]",148
8,"CCN(CC)S(=O)(=O)c1cccc(-c2ccc3cnc(Nc4cc5c(cc4OC)CCNC5)nc3c2)c1 [Compound 1-80, N,N-diethyl-3-{2-[(6-methoxy-1,2,3,4-tetrahydroisoquinolin-7-yl)amino]quinazolin-7-yl}benzene-1-sulfonamide]",23.9
9,"COc1cc2c(cc1Nc1ncc3ccc(-c4ccc(S(=O)(=O)N5CCCC5)cc4)cc3n1)CNCC2 [Compound 1-81, N-(6-methoxy-1,2,3,4-tetrahydroisoquinolin-7-yl)-7-{4-[(pyrrolidin-1-yl)sulfonyl]phenyl}quinazo-lin-2-amine]",192
10,"COc1cc2c(cc1Nc1ncc3ccc(-c4cccc(S(=O)(=O)N5CCCCC5)c4)cc3n1)CNCC2 [Compound 1-82, N-(6-methoxy-1,2,3,4-tetrahydroisoquinolin-7-yl)-7-{3-[(piperidin-1-yl)sulfonyl]phenyl}quinazo-line-2-amine]",15.2
11,"COc1cc2c(cc1Nc1ncc3ccc(-c4cccc(C(=O)NCCN5CCCC5)c4)cc3n1)CNCC2 [Compound 1-83, 3-{2-[(6-methoxy-1,2,3,4-tetrahydroisoquinolin-7-yl)amino]quinazolin-7-yl}-N-[2-(pyrrolidin-1-yl)ethyl]benzamide]",222
12,"CCNS(=O)(=O)c1cccc(-c2ccc3cnc(Nc4cc5c(cc4OC)CCNC5)nc3c2)c1 [Compound 1-84, N-ethyl-3-{2-[(6-methoxy-1,2,3,4-tetrahydroisoquinolin-7-yl)amino]quinazolin-7-yl}benzene-1-sulfonamide]",53.7
13,"COc1cc2c(cc1Nc1ncc3ccc(-c4cc(NC(C)=O)ccc4C)cc3n1)CNCC2 [Compound 1-85, N-(3-{2-[(6-methoxy-1,2,3,4-tetrahydroisoquinolin-7-yl)amino]quinazolin-7-yl}-4-methylphenyl)acetamide]",462
14,"COc1cc2c(cc1Nc1ncc3ccc(-c4cccc(C(=O)N5CCCC5)c4)cc3n1)CNCC2 [Compound 1-86, (3-{2-[(6-methoxy-1,2,3,4-tetrahydroisoquinolin-7-yl)amino]quinazolin-7-yl}phenyl)(pyrrolidin-1-yl)methanone]",44.1
15,"COc1cc2c(cc1Nc1ncc3ccc(-c4ccc5c(c4)CCN5)cc3n1)CNCC2 [Compound 1-87, 7-(2,3-dihydro-1H-indol-5-yl)-N-(6-methoxy-1,2,3,4-tetrahydroisoquinolin-7-yl)quinazolin-2-amine]",49.2
16,"COc1cc2c(cc1Nc1ncc3ccc(-c4ccc5c(c4)CCC(=O)N5)cc3n1)CNCC2 [Compound 1-88, 6-{2-[(6-methoxy-1,2,3,4-tetrahydroisoquinolin-7-yl)amino]quinazolin-7-yl}-3,4-dihydroquinolin-2(1H)-one]",96.9
17,"COc1cc2c(cc1Nc1ncc3ccc(-c4cccc(C(C)(C)N)c4)cc3n1)CNCC2 [Compound 1-89, 7-[3-(2-aminopropan-2-yl)phenyl]-N-(6-methoxy-1,2,3,4-tetrahydroisoquinolin-7-yl)quinazolin-2-amine]",156
